Results: paper PMC8587043, “An Investigation into the Interaction between Double Hydroxide-Based Antioxidant Benzophenone Derivatives and Cyclooxygenase 2” (Molecules, 2021)
Where two headings read alike, the source gives them in different places.

Key:
COX2 = target: T1, COX2 (Homo sapiens, UniProt P35354); experiment: Fluorescence quenching of COX2 (Stern-Volmer, double logarithm, thermodynamic parameters); type: binding; conditions: for KA relative to the control compound: 298 K and 310 K; for Kq (bimolecular quenching constant): Kq = Ksv/τ0; for Kd: read-out: KA (binding constant) (converted); for ΔH (enthalpy change) / ΔS (entropy change): from KA at 298 K and 310 K
T1 construct: purchased Sino Biological Co. (Beijing, China)
T1 sequence (P35354 18-604): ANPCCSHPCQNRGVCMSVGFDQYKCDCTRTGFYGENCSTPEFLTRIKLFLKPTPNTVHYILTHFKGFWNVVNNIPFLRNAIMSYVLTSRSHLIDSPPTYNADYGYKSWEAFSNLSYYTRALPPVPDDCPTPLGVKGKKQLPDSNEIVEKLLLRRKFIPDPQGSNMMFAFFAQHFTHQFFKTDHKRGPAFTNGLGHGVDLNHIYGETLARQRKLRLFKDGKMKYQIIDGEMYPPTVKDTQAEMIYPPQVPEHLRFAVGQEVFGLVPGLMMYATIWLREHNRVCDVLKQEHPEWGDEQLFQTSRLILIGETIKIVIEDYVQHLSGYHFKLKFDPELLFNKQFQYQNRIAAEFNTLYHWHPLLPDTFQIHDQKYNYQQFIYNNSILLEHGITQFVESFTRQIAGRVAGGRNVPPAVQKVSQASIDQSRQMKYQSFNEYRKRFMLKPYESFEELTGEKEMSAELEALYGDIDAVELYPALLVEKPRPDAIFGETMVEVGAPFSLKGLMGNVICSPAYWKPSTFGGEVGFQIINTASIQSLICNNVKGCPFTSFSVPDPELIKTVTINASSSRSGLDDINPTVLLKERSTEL
Text: The emitted fluorescence spectra of COX2 solution (6.0 × 10^−8 mol∙L^−1) without and with an increasing concentration of compounds DB2, SC2 or YB2 (7.5 × 10^−6 mol∙L^−1 to 4.5 × 10^−5 mol∙L^−1) at different temperatures are shown in Figure 4a,b, Figure 4c,d or Figure 4e,f, respectively. […] The quenching constant Kq and Stern–Volmer constant Ksv at different temperatures are usually used to identify the quenching mechanisms, static or dynamic. The former is caused by ground-state complex formation, the latter is diffusion. For the static quenching mechanism, the quenching constant decreases with temperature increase. In this part, we calculated the Kq and Ksv values by using a universally accepted Stern–Volmer equation [38]:(1) F0/F=1+Kqτ0[Q]=1+Ksv[Q] where F0 and F are the protein fluorescence intensities in the absence and the presence of quencher (compounds DB2, SC2 or YB2), respectively. Kq = Ksv/ τ0 . τ0 is the fluorescence lifetime of the fluorophore without the quencher ([…]). [Q] is the concentration of quencher. The Stern-Volmer plots of COX2 fluorescence quenching by compounds DB2, SC2 or YB2 are presented in Figure 5a, Figure 5b or Figure 5c, respectively. According to Table 1, the Ksv and Kq values for all three systems (COX2-DB2, COX2-SC2 and COX2-YB2) decreased with increasing temperature. Therefore, we considered that the quenching was static quenching. To further verify that the system was static quenching, dynamic quenching was assumed first.
For the static quenching, we can use the double logarithm equation to obtain the binding constant (KA) and the number of binding sites per protein (n):(2) lgF0−F/F=lgKA+nlg[Q]
There are four main kinds of non-covalent forces between drugs and proteins. These are electrostatic force, hydrogen bonding, hydrophobic force and van der Waals force. The kind of interaction between compounds DB2, SC2 or YB2 and COX2 can be obtained from thermodynamic parameters, including the free energy change (ΔG), enthalpy change (ΔH) and entropy change (ΔS) of the reaction. The three thermodynamic parameters can be obtained according to the published equations [42, 44]:(3) ΔG=−RTlnK (4) lnK2/K1=ΔH(1/T1−1/T2)×1/R (5) ΔG=ΔH−TΔS
The fluorescence intensity of the system was measured with a 1.0 cm quartz cell. COX2 protein was dissolved in PBS for a final concentration of 6.0 × 10^−8 mol∙L^−1. DB2, SC2 or YB2 stock solutions were prepared in singleton at 1.5 × 10^−3 mol∙L^−1 in PBS containing 0.1% DMSO. 2.0 mL COX2 solution was separately titrated by continuing additions of 10 μL compounds DB2, SC2 or YB2 solution). After incubation at 298 K or 310 K, fluorescence quenching spectra were recorded in the region 325-450 nm at a scan rate of 1200 nm∙min^−1. The local environment of Tyr and Trp residues was quite sensitive at 280 nm, so the excitation wavelength was set at this wavelength. Typically, 280 nm is also used to measure the changes in protein tertiary structure. The slit widths of emission and excitation were both fixed at 10 nm. To observe spectra behaviors of Tyr and Trp groups of COX2, the wavelength interval between the excitation and emission wavelengths (Δλ) was set as 15 nm and 60 nm, respectively. Three-dimensional fluorescence spectroscopy was obtained for an excitation range of 200–300 nm and an emission range of 325–400 nm. Appropriate buffer solutions, determined under the same operation conditions, were used as blanks. Each spectrum was recorded three times.

EA.hy926 cells = experiment: LDH, MDA, ROS and SOD in H2O2-treated cells; type: cell-based, human; conditions: pretreated 24 h, then 400 μmol·L^−1 H2O2 for 4 h; p < 0.01
Description: In the course of oxidative stress, the balance between oxidation and antioxidant activity of cells was disturbed, and the levels of ROS, malondialdehyde (MDA) and lactate dehydrogenase (LDH) increased, while the activity of superoxide dismutase (SOD) enzyme in cells decreased.
Cells were dispensed into 24-well plate wells for 24 h and pretreated with target compound SC2 (5, 0.1, 0.05 µmol·L^−1) or the positive controls (10 µmol·L^−1) for 24 h, followed by exposure to 400 μmol·L^−1 H2O2 for 4 h. The cells were collected and the activities of LDH, MDA, SOD and ROS were determined according to the kits’ instructions.

| Ksv (Stern-Volmer quenching constant) (COX2; 298 K) | n (number of binding sites per protein) (COX2; 298 K) | ΔG (free energy change) (COX2; 298 K) [kcal/mol] | Kq (bimolecular quenching constant) (COX2; 298 K) | Kd (COX2; 298 K) [µM] | Ksv (Stern-Volmer quenching constant) (COX2; 310 K) | n (number of binding sites per protein) (COX2; 310 K) | ΔG (free energy change) (COX2; 310 K) [kcal/mol] | Kq (bimolecular quenching constant) (COX2; 310 K) | Kd (COX2; 310 K) [µM] | ΔH (enthalpy change) (COX2) [kcal/mol] | ΔS (entropy change) (COX2) [J∙K^−1] | SMILES | KA relative to the control compound (COX2) | LDH level compared with model group (EA.hy926 cells) | MDA level compared with model group (EA.hy926 cells) | ROS level compared with model group (EA.hy926 cells) | SOD activity compared with model group (EA.hy926 cells) |
| --- | --- | --- | --- | --- | --- | --- | --- | --- | --- | --- | --- | --- | --- | --- | --- | --- | --- |
| 1.43 ± 0.188 ×10^4 L∙mol^−1 | 1.10 ± 0.0208 | -6.19 ± 0.0669 | 1.43 ± 0.188 ×10^12 L∙mol^−1∙S^−1 | 28.2 | 1.14 ± 0.380 ×10^4 L∙mol^−1 | 1.03 ± 0.0633 | -5.88 ± 0.134 | 1.14 ± 0.380 ×10^12 L∙mol^−1∙S^−1 | 73.1 | -14.7 ± 1.96 | −120 ± 28.1 | CCCCc1ccc(C(=O)c2c(Br)cc(O)c(O)c2O)cc1 [DB2] | approximately an order of magnitude larger |  |  |  |  |
| 2.31 ± 0.988 ×10^4 L∙mol^−1 | 1.01 ± 0.0469 | -5.98 ± 0.0547 | 2.31 ± 0.988 ×10^12 L∙mol^−1∙S^−1 | 41.7 | 2.07 ± 1.03 ×10^4 L∙mol^−1 | 1.02 ± 0.0731 | -6.14 ± 0.143 | 2.07 ± 1.03 ×10^12 L∙mol^−1∙S^−1 | 45.7 | -1.61 ± 2.18 | 61.2 ± 31.3 | CC(C)(C)c1ccc(C(=O)c2c(Cl)cc(O)c(O)c2O)cc1 [SC2] | approximately an order of magnitude larger | significantly reduced | significantly reduced | significantly reduced | significantly increased |
| 3.49 ± 1.69 ×10^4 L∙mol^−1 | 1.07 ± 0.0551 | -6.55 ± 0.0241 | 3.49 ± 1.69 ×10^12 L∙mol^−1∙S^−1 | 15.7 | 2.58 ± 0.562 ×10^4 L∙mol^−1 | 1.07 ± 0.0306 | -6.62 ± 0.076 | 2.58 ± 0.562 ×10^12 L∙mol^−1∙S^−1 | 21.5 | -4.95 ± 1.55 | 22.6 ± 21.9 | CC(C)Cc1ccc(C(=O)c2c(Br)cc(O)c(O)c2O)cc1 [YB2] | approximately an order of magnitude larger |  |  |  |  |
